From patent US12227535B2, “Triterpene saponins, methods of synthesis and uses thereof” (SLOAN KETTERING INSTITUTE FOR CANCER RESEARCH, priority 2008, dated 2025)

Assays:
[1] = in vivo; cited from earlier work
GD3 ganglioside = assay: Anti-GD3 antibody ELISA after vaccination of mice with GD3-KLH conjugate plus QS-21 adjuvants (Example 4); type: in vivo, mice (C57BL/6J, female); details: after 3 weekly vaccinations with GD3-KLH; adjuvant doses 10 and 20 μg; compared with GD3-KLH alone
Method: Using similar protocols, the immuno-potentiating properties of the synthetic adjuvants SQS-21-Api and SQS-21-Xyl were evaluated in mice (C57BL/6J, female, six weeks of age). […]
Groups of five mice were immunized with the melanoma antigen GD3 ganglioside conjugated to KLH (GD3-KLH) at a 10 μg antigen dose per vaccination. […] Immunopotentiation was assessed by testing for the presence of antibody against GD3 and KLH by ELISA, and against a tumor cell-line SK-MEL-28, expressing GD3 antigen, by FACS.
The antibody response after vaccination with GD3-KLH conjugate with or without adjuvant was determined with an ELISA assay using either GD3 ganglioside or KLH protein as target. […] After the third vaccination, no IgG antibodies against GD3 were detected; however, after the fourth immunization IgM and IgG antibody titers were induced in most mice. […]

[2] = Toxicity: loss of weight after each injection; type: in vivo, mice (C57BL/6J, female); details: monitored 0 h, 24 h, 48 h, 72 h after each injection; GD3-KLH 10 μg; adjuvant 20 μg; 4-week duration
Method: As a measure of toxicity, loss of weight was monitored at 0 h, 24 h, 48 h and 72 h after each injection. […] As the negative control, vaccinations employing GD3-KLH only (no adjuvant) led to no appreciable weight loss after each injection.

| Compound | maximum dose [1] | IgM antibody response against GD3 (antibody titers) (GD3 ganglioside) | weight loss after each injection [2] |
| --- | --- | --- | --- |
| QS-21 | ≤ 50 µg |  |  |
| CC[C@H](C)[C@H](C[C@H](O)CC(=O)O[C@H]1C(C)O[C@@H](OC(=O)[C@]23CCC(C)(C)CC2C2=CCC4C5(C)CC[C@H](O[C@@H]6OC(C(=O)O)[C@@H](O)[C@H](O[C@@H]7OC[C@@H](O)[C@H](O)C7O)C6O[C@@H]6OC(CO)[C@H](O)[C@H](O)C6O)[C@](C)(C=O)[C@@H]5CC[C@]4(C)[C@]2(C)CC3O)C(O[C@@H]2OC(C)[C@H](O[C@@H]3OC[C@@H](O)C(O[C@@H]4OCC(O)(CO)[C@@H]4O)C3O)C(O)C2O)C1O)OC(=O)C[C@@H](O)C[C@H](O[C@@H]1O[C@@H](CO)C(O)C1O)[C@@H](C)CC (some centres unmarked) [SQS-21-Api, QS-21-Api] |  | significantly higher than the group with GD3-KLH alone | very similar |
| CC[C@H](C)[C@H](C[C@H](O)CC(=O)O[C@H]1C(C)O[C@@H](OC(=O)[C@]23CCC(C)(C)CC2C2=CCC4C5(C)CC[C@H](O[C@@H]6OC(C(=O)O)[C@@H](O)[C@H](O[C@@H]7OC[C@@H](O)[C@H](O)C7O)C6O[C@@H]6OC(CO)[C@H](O)[C@H](O)C6O)[C@](C)(C=O)[C@@H]5CC[C@]4(C)[C@]2(C)CC3O)C(O[C@@H]2OC(C)[C@H](O[C@@H]3OC[C@@H](O)C(O[C@@H]4OC[C@@H](O)C(O)C4O)C3O)C(O)C2O)C1O)OC(=O)C[C@@H](O)C[C@H](O[C@@H]1O[C@@H](CO)C(O)C1O)[C@@H](C)CC (some centres unmarked) [SQS-21-Xyl, QS-21-Xyl] |  | significantly higher than the group with GD3-KLH alone | very similar |
